Residue numbers refer to the chain shown, from its start. Names and notes keep the numbering of the source.
Experiments:
[1] = biological target: two component non-P450 hydroxylase HpaBC (Escherichia coli, UniProt Q57160); details: native wild-type HpaBC; proceeds incomplete; cited from earlier work
[2] = biological target: T1, 4HPA3H-Y301F/S462A (SEQ ID NO:175) (Escherichia coli, UniProt Q57160, S462A/Y301F); assay: Solid phase-based cascade (Talon column), hydroxylation of naringenin to eriodictyol; format: biochemical, E. coli
T1 construct: made in house; host or cells: E. coli BL21(DE3)
Protocol: Stock solutions of […] and eriodictyol (10 mM each) in methanol were produced (for the structure of the compounds, see FIG. 9). They were diluted using acetonitrile for obtaining the desired concentrations (70, 110, 140, 210 and 280 μM). 10 μl of each sample was injected in to a HPLC machine and calibration curves were produced for both substances (data not shown).
First the catalysis was performed using 9 mU oxidase 4HPA3H in a 10 ml reaction comprising 1 ml 1M Tris/HCl, pH 7.5; 25 μl of a 10 mM NADH solution, 20 μl of a 5 mM FAD solution and 1 ml formate solution using 9 mU 4HPA3H-Y301F/S462A (SEQ ID NO:175) and 0.57 mU PrnF-reductase (SEQ ID NO:176) and 640 mU FDH (SEQ ID NO:177). Subsequently the enzymes were mixes, 100 μl 1M Tris/HCl solution, pH 7.5, was added and ddH2O (deionized, reverse osmosis) was added ad 2 ml. The enzyme solution was at least 5 times passed through a 1 ml Talon column with a flow rate of 0.1 ml/min^−1 to let the proteins bind to the column in a homogenous way. The evaluation of the complete binding of the proteins to the column material was measured via Bradford assay. Then, the column was washed once with 50 mM Tris/HCl, pH 7.5 (=basis buffer), and connected to a peristaltic pump.
The constituents of each reaction mixture were transferred to a suitable sterile flask, which was then connected to a peristaltic pump. During reaction, the reaction mixture was slightly stirred with the help of a magnetic stirrer. Using a flow rate of 1 ml/min, the system was washed with the basis buffer for 2 min and a control sample was taken. Only then, the substrate was added, here 200 μM naringenin (from a 10 mM stock solution in methanol). The substrate was pumped over the Talon column having the enzymes bound thereto with a flow rate of 1 ml/min at maximum. During the time range from 0-1310 min, the sample extraction was performed in samples of 35 μl each. Said samples were mixed with an equal volume of acetonitrile and were immediately injected into a HPLC device (20 μl each). The evaluation was conducted with the help of a calibration curve done at the beginning of the experiment and thereby measuring and calculating the peak areas (see FIG. 10).
The same assay was performed using 35 mU hydroxylase/1 ml column volume and the concentration of the co-enzymes for regeneration of the cofactor was increased equivalently.

4HPA3H = biological target: T2, 4HPA3H (Escherichia coli, UniProt Q57160); assay: Whole-cell hydroxylation, cells expressing wild-type 4HPA3H; format: cell-based, E. coli; details: BL21(DE3) cells expressing wild-type 4HPA3H
T2 construct: expressed in transfected cells; host or cells: E. coli BL21(DE3)
Protocol: (§6) Substrates (200 μM) as shown in FIG. 1 were added to suspensions of bacterial cells expressing 4HPA3H or its single (A) and double variants (B). After incubation for 16 hours, catechols and residual substrates were extracted and analyzed by HPLC
(§7) Suspensions of the cells were tested for hydroxylation of a panel of eight phenolic compounds (FIG. 1) which belong to different classes of natural products: we included (I) phenolic acids and ketones such as p-coumaric acid (1), ferulic acid (3), rheosmin (15) and p-hydroxybenzoic acid (9), (II) polycyclic compounds such as the hydroxycoumarin umbelliferone (13), the stilbene resveratrol (5) and the flavonoid naringenin (7). […] 4HPA3H was also tested for conversion of 4-methoxycinnamic acid and 4-aminocinnamic acid.

wild-type 4HPA3H = biological target: T3, wild-type 4HPA3H (Escherichia coli, UniProt Q57160); assay: In vitro hydroxylation by the 4HPA3H/PrnF/FDH system, wild-type 4HPA3H; format: biochemical, E. coli; details: substrate 1 mM, purified wild-type 4HPA3H, optimized conditions
T3 construct: made in house; host or cells: E. coli BL21(DE3)
Protocol: (§1) Purified 4HPA3H (A) or variants (B) (Y301I depicted in white and Y301F/S462A depicted in black) were used for conversion of substrates (1 mM) under optimized conditions. The numbers correspond to substrates as explained in the legend for FIG. 1 above.
(§2) In order to develop an effective and low-cost enzyme system for in vitro hydroxylation, several parameters of the 4HPA3H reaction with respect to maximum reaction rate were optimized. By means of a spectrophotometric assay (Example 4 above), the inventors screened different buffer systems and optimized the concentration of the components p-coumaric acid (1 cf. FIG. 1), FAD, NADH and methanol, the incubation temperature and oxygen transfer (i.e. by variation of the shaking frequency) (optimum conditions are given in the Experimental Section). […] In contrast to the cofactors, the accompanying cofactor recycling redox enzymes PrnF and FDH were used in excess due to their high specific activity.
In accordance with the whole-cell transformation experiments (FIG. 3), product yields in the conversion by the wild-type 4HPA3H (FIG. 8A) ranged from high (1, 13, 15 cf. FIG. 1) or moderate (5 cf. FIG. 1) to low (9, 11 cf. FIG. 1), whereas ferulic acid 3 was not oxidized. […] However, in contrast to the experiments with life biocatalysts […] conversion of naringenin (7 cf. FIG. 1) by the wild-type 4HPA3H (25% yield) was observed (which might be explained by increased substrate availability). The hydroxycarbazole (11) was not accepted by the double variant Y301F/S462A, probably because of the high substrate concentration which seems to reflect strong […] inhibition—an effect which has previously been observed for other 4HPA3H enzymes. Noteworthy, HPLC analysis of the reaction products confirmed product specificity.

[3] = biological target: T4, 4HPA3H double variant Y301F/S462A (Escherichia coli, UniProt Q57160, S462A/Y301F); assay: In vitro hydroxylation by the 4HPA3H/PrnF/FDH system, variant Y301F/S462A; format: biochemical, E. coli; details: substrate 1 mM, purified Y301F/S462A
T4 construct: made in house; host or cells: E. coli BL21(DE3)
Protocol: as §1, §2
(§3) In accordance with the whole-cell transformation experiments (FIG. 3), product yields in the conversion by the wild-type 4HPA3H (FIG. 8A) ranged from high (1, 13, 15 cf. FIG. 1) or moderate (5 cf. FIG. 1) to low (9, 11 cf. FIG. 1), whereas ferulic acid 3 was not oxidized. […]

4HPA3H/PrnF/FDH system = assay: Dependence of in vitro conversion of p-coumaric acid on FAD concentration; format: biochemical
Protocol: The reactions were to performed using the 4HPA3H/PrnF/FDH system.
as §2

4HPA3H enzymes = details: previous study; cited from earlier work
[4] = Reduction of FAD with NADH by purified PrnF; format: biochemical; details: purified protein
Text: In order to characterize 4HPA3H and its variants with respect to specific activity, the development of a convenient in vitro assay was necessary. As the enzymes rely on a reductase component which provides the cofactor FADH2 (see FIG. 2), the inventors focused on screening of a suitable reductase enzyme in the first step. The flavin reductase HpaC from E. coli—the endogenous partner of 4HPA3H—was not accessible due to formation of mainly insoluble protein under a variety of expression conditions (data not shown).

[5] = Whole-cell hydroxylation, variants on substrates 5, 9 and 11; format: cell-based; details: whole cells
[6] = Whole-cell hydroxylation, variants compared with wild-type on well-accepted substrates; details: whole cells
Protocol: as §6, §7

[7] = In vitro catechol complex formation assay (4HPA3H/PrnF/FDH), p-coumaric acid; format: biochemical; details: purified enzyme, optimized conditions, PrnF and FDH
Protocol: (A) Standard curve for the determination of caffeic acid (2 cf. FIG. 1). Mixtures of caffeic acid and p-coumaric acid (1) were incubated with FeCl3 and analyzed at 595 nm as described in the Experimental Section. (B) Time course of the oxidation of p-coumaric acid (1 cf. FIG. 1) by wild-type 4HPA3H. The enzymatic reaction was performed under optimized conditions, and produced caffeic acid (2 cf. FIG. 1) was detected as Fe^3+ complex. Data are the means±standard deviations obtained from three measurements.
(§4) For assaying 4HPA3H in microplate scale, 4HPA3H was incubated with PrnF, the substrate p-coumaric acid (1 cf. FIG. 1) and the formate dehydrogenase (FDH) from Candida boidinii. Similar as reported in our previous publication, this enzyme was introduced for regeneration of the costly cofactor NADH: NAD^+ formed during the reaction is recycled with sodium formate, yielding a sequential three-enzyme cascade for hydride transfer (FIG. 2). The conversion of p-coumaric acid (1 cf. FIG. 1) was measured spectrophotometrically by a previously established catechol complexation method (M. Dippe, B. Weigel, R. Heinke, T. Vogt, L. A. Wessjohann, 2014), which could be applied for quantitative determination of the product caffeic acid (see FIG. 6). […] However, similar to the data obtained from whole-cell biotransformations (see Example 2), these variants were beneficial in the conversion of ferulic acid (3 cf. FIG. 1), which is also reflected by comparably high conversion rates (4HPA3H-Y301F/S462A: 1.06±0.31 nmol min^−1 mg^−1, 4HPA3H-Y301I: 4.49±0.20 nmol min^−1 mg^−1).
(§5) In order to develop an effective and low-cost enzyme system for in vitro hydroxylation, several parameters of the 4HPA3H reaction with respect to maximum reaction rate were optimized. […]

[8] = In vitro hydroxylation, mutant enzymes on challenging substrates 3 and 7; format: biochemical; details: substrate 1 mM, purified enzymes
Protocol: as §1, §2, §3

[9] = In vitro assay (4HPA3H/PrnF/FDH), conversion of ferulic acid; format: biochemical; details: purified enzyme, PrnF and FDH
Protocol: as §4, §5

In the case of `O=C1C[C@@H](c2ccc(O)cc2)Oc2cc(O)cc(O)c21` [Compound 7, naringenin], the “conversion of naringenin to eriodictyol” value [1] is given as under 10%, the “remaining concentration of naringenin” value ([2]; 9 mU enzyme/1 ml column, 200 μM naringenin, after 1290 min) is given as 29.3 µM and the “remaining concentration of naringenin” value ([2]; 35 mU hydroxylase/1 ml column volume, after 240 min) is given as 33.3 µM. The “acceptance as substrate” value (4HPA3H) was “not accepted”.

For `Oc1ccc2c(c1)[nH]c1ccccc12` [Compound 11, 2-hydroxycarbazole], the “product yield” value (wild-type 4HPA3H) was “low” and the “acceptance as substrate” value [3] was “not accepted”.

For `Cc1cc2nc3c(=O)[nH]c(=O)nc-3n(C[C@H](O)[C@H](O)[C@H](O)COP(=O)(O)OP(=O)(O)OC[C@H]3O[C@@H](n4cnc5c(N)ncnc54)[C@H](O)[C@@H]3O)c2cc1C` [FAD, flavin adenine dinucleotide], the “effect of high concentrations on the redox system” value (4HPA3H/PrnF/FDH system) was “inhibitory”.

For `O=C(O)C=Cc1ccccc1` [cinnamic acid], the “hydroxylation of substrate” value (4HPA3H enzymes) is listed as “unable to hydroxylate”.

B1: PrnF: flavin reductase from Pseudomonas protegens Pf-5, cofactor recycling enzyme, SEQ ID NO:176 (protein, listed as Pseudomonas protegens)
chain: MNAATETKVHDLLDAEGRDVRDARELRNVLGQFATGVTVITTRTADGRNVGVTANSFSSLSLSPALVLWSLARTAPSLKAFCSASHFAINVLGAHQHHLSEQFARAAADKFAGVAHSYGKAGAPVLDDVVAVLVCRNVTQYEGGDHLIFIGEIEQYRYSGAEPLVFHAGQYRGLGSNRAESVLKHE
modifications: flavin reductase PrnF
In the case of B1, the “activity in reduction of FAD with NADH” value [4] is reported as 16,660±1,600 nmol min^−1 mg^−1.

B2: 4HPA3H-Y301F: 4HPA3H single variant Y301F (protein, listed as Escherichia coli)
chain: MKPEDFRASTQRPFTGEEYLKSLQDGREIYIYGERVKDVTTHPAFRNAAASVAQLYDALHKPEMQDSLCWNTDTGSGGYTHKFFRVAKSADDLRQQRDAIAEWSRLSYGWMGRTPDYKAAFGCALGANPGFYGQFEQNARNWYTRIQETGLYFNHAIVNPPIDRHLPTDKVKDVYIKLEKETDAGIIVSGAKVVATNSALTHYNMIGFGSAQVMGENPDFALMFVAPMDADGVKLISRASYEMVAGATGSPYDYPLSSRFDENDAILVMDNVLIPWENVLIYRDFDRCRRWTMEGGFARMFPLQACVRLAVKLDFITALLKKSLECTGTLEFRGVQADLGEVVAWRNTFWALSDSMCSEATPWVNGAYLPDHAALQTYRVLAPMAYAKIKNIIERNVTSGLIYLPSSARDLNNPQIDQYLAKYVRGSNGMDHVQRIKILKLMWDAIGSEFGGRHELYEINYSGSQDEIRLQCLRQAQNSGNMDKMMAMVDRCLSEYDQDGWTVPHLHNNDDINMLDKLLK
modifications: 4HPA3H HpaB Y301F
notes: 4HPA3H single variant Y301F
In the case of B2, the “conversion of the substrates 5, 9 and 11” value [5] is reported as “superior” and the “activity towards substrates 1, 13, 15 compared with wild-type enzyme” value [6] is reported as “comparably active”.

B3: 4HPA3H-Y301I: 4HPA3H single variant with isoleucine at position 301 (protein, listed as Escherichia coli)
chain: B2 chain with F301I
modifications: 4HPA3H HpaB Y301I
notes: 4HPA3H single variant with isoleucine at position 301
In the case of B3, the “specific activity towards p-coumaric acid (1)” value [7] is reported as 1.3 ± 0.6 nmol/min/mg, the “transformation of the challenging substrates 3 and 7” value [8] is reported as “optimal” and the “conversion rate of ferulic acid (3)” value [9] is reported as 4.49 ± 0.20 nmol/min/mg.

— patent US10988786B2, “Mutant 4-hydroxyphenylacetate 3-hydroxylases and uses thereof” (SYMRISE AG, priority 2015, dated 2021)
